Assay results published in patent publication US6603023B2 (priority 1996, dated 2003).
Where a name gives a salt, the structure may show the parent alone.

Key:
[1] = system: Human CCRF-CEM/VBL Xenograft; test: CCRF-CEM/VBL xenograft in scid mice; type: in vivo, CB-17 scid mice
[2] = system: human neuroblastoma SK-N-As; test: SRB cytotoxicity, SK-N-As; type: cell-based; details: Homo sapiens, SK-N-AS, 72 h
Procedure, shortened: (§1)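 Monolayer cultures grown in RPMI 1640-10% FBS at 37 °C, 5% CO2, with resistant sublines kept under their selecting agent. Cytotoxicity determined by SRB protein staining (TCA fixation, absorbance 570 nm) in duplicate at six to seven drug concentrations. ED50 obtained by median-effect plot analysis.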

MCF-7/Adr = test: cells; type: cell-based, human; details: Homo sapiens, NCI/ADR-RES, 72 h
Procedure, shortened: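 Sulforhodamine B readout: TCA-fixed cultures stained 30 min with 0.4% SRB, bound dye extracted in unbuffered Tris and read at 570 nm. Duplicate experiments, six to seven drug concentrations per run.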

[3] = system: human ovarian UL3-C tumor; test: UL3-C ovarian tumor xenograft
DC-3F/ADII = test: SRB cytotoxicity, DC-3F/ADII; type: cell-based, hamster; details: Mesocricetus auratus, DC3F
Method: The DC-3F hamster lung fibroblast cell line and its actinomycin D-selected sublines (DC-3F/ADII and DC-3F/ADX) were obtained from the Memorial Sloan-Kettering Cancer Center (MSKCC).
The drug-resistant cell lines were continuously cultured in the presence of the selecting agent, AD, DX, VBL or VM to maintain the drug resistant phenotypes. […] All cells were cultured in RPMI 1640-10% FBS at 37° C. 5% CO2 (see below).
The cytotoxicity of the drug toward the monolayer cell cultures (such as DC-3F, MCF-7, SK-N-As and sublines) was determined in 96-well microtiter plates by the SRB method as described by Skehan and co-workers (Skehan, P., et al., J. Natl. Cancer Inst. 1990, 82, 1107-1112) for measuring the cellular protein content. Cultures were fixed with trichloroacetic acid and then stained for 30 min with 0.4% suforhodamine B dissolved in 1% acetic acid. Unbound dye was removed by acetic acid washes, and the protein-bound dye was extracted with an unbuffered Tris base (tris(hydroxy-methyl)aminomethane) for determination of absorbance at 570 nm in a 96-well microtiter plate reader. The experiments were carried out in duplicate. Each run entailed six to seven concentrations of the tested drugs. Data were analyzed with the median-effect plot (Chou, T.-C. & Talalay, P. T. (1984) Adv. Enzyme Regul. 22, 27-55) using a previously described computer program (Chou, J., & Chou T.-C. 1987, Dose-effect analysis with microcomputers: Quantitation of ED50, synergism, antagonism, low-dose risk, reception-ligand binding and enzyme kinetics, IBM-PC software and manual, Biosoft, Cambridge, U.K.).
Concerning Table 3, experiments were carried out using the cell lines DC-3F (parent hamster lung cells), DC-3F/ADII (moderate multidrug-resistant (MDR) cells) and DC-3F/ADX (very strong MDR cells).

[4] = system: DC-3F hamster lung fibroblast cell line; test: SRB cytotoxicity, DC-3F; type: cell-based; details: Mesocricetus auratus, DC3F
Procedure, shortened: as §1

CCRF-CEM = test: Drug combination analysis (combination index, XTT, 72 h); type: cell-based; details: Homo sapiens, median-effect parameter, read-out: Dm (IC50)
[5] = system: HT-29 Colon Adenocarcinoma; test: HT-29 xenograft; type: in vivo, nude mice; details: dEpoB 30 mg/kg Q2D x 6, Taxol 15 mg/kg Q2D x 6
CCRF-CEM/VBL = CCRF-CEM/VBL xenograft in nude mice, i.v. 6 h infusion; type: in vivo; details: CCRF/VBL Leukemia; dEpoB 30 mg/kg Q2D x 5, Taxol 15 mg/kg Q2D x 5
From the text: Treatment on days 19, 21, 23, 25, 27, 39, 41, 43, 45, 47 and 53.

[6] = dose 2.0 i.p. QD d7-10,14,15, day 12
[7] = dose 2.0 i.p. QD d7-10,14,15, day 17
[8] = dose 2.0 i.p. QD d7-10,14,15, day 22
[9] = dose 4.0 i.p. QD d7-10,14,15, day 12
[10] = dose 4.0 i.p. QD d7-10,14,15, day 17
[11] = dose 4.0 i.p. QD d7-10,14,15, day 22
[12] = UL3-C Ovary, dEpoB 30 mg/kg Q2D x 5, Taxol 15 mg/kg Q2D x 5
[13] = dEpoB 30, Taxol 20 mg/kg, i.v. infusions on day 19,21,23,25,27
[14] = dose 0.2 i.p. QD d7-10,14,15, day 12
[15] = dose 0.2 i.p. QD d7-10,14,15, day 17
[16] = dose 0.2 i.p. QD d7-10,14,15, day 22
[17] = dose 0.4 i.p. QD d7-10,14,15, day 12
[18] = dose 0.4 i.p. QD d7-10,14,15, day 17
[19] = dose 0.4 i.p. QD d7-10,14,15, day 22

In the case of CC(=O)O[C@H]1C(=O)[C@@]2(C)[C@H]([C@H](OC(=O)c3ccccc3)[C@]3(O)C[C@H](OC(=O)[C@H](O)[C@@H](NC(=O)c4ccccc4)c4ccccc4)C(C)=C1C3(C)C)[C@]1(OC(C)=O)CO[C@@H]1C[C@@H]2O [Taxol ®, paclitaxel], the Average weight change ([1]; dose 2.0 i.p. QD d7-10,14,15, day 7) is reported as 0, the “Average tumor volume (control = 1.00)” value [1, 6] is reported as 0.60 and the Average weight change [1, 6] is reported as −0.9. For the same compound, the “Average tumor volume (control = 1.00)” value [1, 7] was 0.58, the Average weight change [1, 7] was −1.5 and the “Average tumor volume (control = 1.00)” value [1, 8] was 0.70. For the same compound, the Average weight change [1, 8] was −0.1, the Average weight change ([1]; dose 4.0 i.p. QD d7-10,14,15, day 7) was 0 and the “Average tumor volume (control = 1.00)” value [1, 9] was 0.79. The Average weight change [1, 9] was −1.4, the “Average tumor volume (control = 1.00)” value [1, 10] was 0.55 and the Average weight change [1, 10] was −1.6. The “Average tumor volume (control = 1.00)” value [1, 11] was 0.41, the Average weight change [1, 11] was −0.9 and the IC50 [2] was 1.6 nM. The IC50 (MCF-7/Adr) was 150 nM, the “Lowest Average Tumor Size (T/C)” value [3, 12] was 0.04 T/C and the “Tumor Disappearance” value [3, 12] was 0. The “Average Body Weight (change), Day 33” value [3, 13] was -2.7 g, the “Average Body Weight Change, Day 27” value [3, 13] was -2.9 g and the “Average Body Weight Change, Day 29” value [3, 13] was -3.3 g. The “Average Body Weight Change, Day 31” value [3, 13] was -2.4 g, the “Average Tumor Size (T/C), Day 27” value [3, 13] was 0.10 T/C and the “Average Tumor Size (T/C), Day 29” value [3, 13] was 0.08 T/C. The “Average Tumor Size (T/C), Day 31” value [3, 13] was 0.03 T/C, the “Average Tumor Size (T/C), Day 33” value [3, 13] was 0.04 T/C and the “Average Body Weight, Day 19” value ([3]; initial weight, dEpoB 30, Taxol 20 mg/kg, i.v. infusions on day 19,21,23,25,27) was 31.3 g. It also gave an IC50 (DC-3F/ADII) of 3200 nM, an IC50 ([4]; 72 h, Table 1C, SRB) of 95 nM and an IC50 ([4]; Table 3) of 94.7 nM. For the same compound, the IC50 ([4]; relative potency ordering) was 90 nM, the IC50 (CCRF-CEM) was 1.09 nM and the “Lowest Average Tumor Size (T/C)” value [5] was 0.01 T/C. For the same compound, the “Tumor Disappearance” value [5] was 0, the “Lowest Average Tumor Size (T/C)” value (CCRF-CEM/VBL) was 0.76 T/C and the “Tumor Disappearance” value (CCRF-CEM/VBL) was 0.
For CC[C@]1(O)C[C@@H]2CN(CCc3c([nH]c4ccccc34)[C@@](C(=O)OC)(c3cc4c(cc3OC)N(C)[C@H]3[C@@](O)(C(=O)OC)[C@H](OC(C)=O)[C@]5(CC)C=CCN6CC[C@]43[C@@H]65)C2)C1 [Vinblastine, Vinblastine sulfate], the Average weight change ([1]; dose 0.2 i.p. QD d7-10,14,15, day 7) was −0.3, the “Average tumor volume (control = 1.00)” value [1, 14] was 0.86 and the Average weight change [1, 14] was −0.8. The “Average tumor volume (control = 1.00)” value [1, 15] was 0.66, the Average weight change [1, 15] was −1.4 and the “Average tumor volume (control = 1.00)” value [1, 16] was 0.67. The Average weight change [1, 16] was −0.3, the Average weight change ([1]; dose 0.4 i.p. QD d7-10,14,15, day 7) was 0 and the “Average tumor volume (control = 1.00)” value [1, 17] was 1.02. For the same compound, the Average weight change [1, 17] was −1.2, the “Average tumor volume (control = 1.00)” value [1, 18] was 0.57 and the Average weight change [1, 18] was −1.8. For the same compound, the “Average tumor volume (control = 1.00)” value [1, 19] was 0.62, the Average weight change [1, 19] was −0.5 and the IC50 (DC-3F/ADII) was 78.9 nM. The IC50 ([4]; Table 3) was 2.65 nM and the IC50 (CCRF-CEM) was 0.61 nM.
